# Experimental data: PMC7026080, “Phenotypic high-throughput screening platform identifies novel chemotypes for necroptosis inhibition” (Cell Death Discovery, 2020)
# System: necroptosis proteins in liver tissue
# Assay: p-MLKL/MLKL and p-RIPK3/RIPK3 immunoblot in liver tissue of SIRS mice
# Type: in vivo, mouse
# Details: compared with mTNF-α alone; 5 mg/kg i.v.
# Procedure: Representative blots and quantification of p-RIPK3/RIPK3 and p-MLKL/MLKL ratios in fold-change from control. Blots were normalized to endogenous β-actin.
# Further details are provided as Supplementary Information.
# Animal studies, injections and monitoring. Male C57BL/6J mice with 18-26 g (Charles River Laboratories International, Inc., Wilmington, MA, USA) were used at the age of 8-14 weeks. Five to seven animals were included in each experimental group. All animal experiments were carried out with the permission of local animal ethical committee in accordance with the EU Directive (2010/63/EU), Portuguese laws (DL113/2013, 2880/2015, 260/2016) and all relevant legislations. Animals received humane care in a temperature-controlled environment with a 12 h light-dark cycle and ad libitum access to pelleted chow and water, complying with the Institute’s guidelines, and as outlined in the “Guide for the Care and Use of Laboratory Animals” prepared by the National Academy of Sciences and published by the National Institutes of Health (NIH publication 86-23 revised 1985). […] Nec-1 was diluted as follows (v/v): 48% PBS 1X, 17% DMSO and 35% PEG 400. […] All injections were administered intravenously (i.v.) in 100 µL volume each.
smiles,measurement,value
"CN1C(=O)C(Cc2c[nH]c3ccccc23)NC1=S (centres unmarked) [Nec-1, necrostatin-1]",p-MLKL/MLKL ratio in mouse liver tissue,decreased
same,p-RIPK3/RIPK3 ratio in mouse liver tissue,decreased
